Source: patent publication US10945971B2, “Sphingosine kinase type 1 inhibitors and uses thereof” (Enzo Therapeutics, Inc., priority 2008, dated 2021)

How the values were obtained:
LN229 cells [1] = experiment: Cell proliferation (WST-1), LN229 cells; format: cell-based, human
Procedure: (§1) U373-MG and LN229 human glioblastoma cells (ATTC, Manassas, Va.) were cultured in DMEM supplemented with 5% FCS. Primary human non-established glioblastoma GBM6 cells were kindly provided by Dr. C. David James and were passaged as tumors in nude mice and subcultured for 1 week following isolation from tumors in media containing 2% FCS to prevent growth of contaminating rodent fibroblasts and then cultured in 5% FCS as described (Yacoub et al., Mol Cancer Ther 7:314-329, 2008). LN229 cells were transfected with H2B-EGFP plasmid and stable colonies were isolated following selection with 1 mg/ml of G418. LN229-H2B-EGFP cells were passaged as tumors as described above.
(§2) Cells were plated at 10,000 cells/well in 48-well plates and allowed to attach for 24 h. Cell proliferation was measured at the indicated times with WST-1 and absorbance was measured in a plate reader at 450 nm with background subtraction at 630 nm. Cell death was detected by trypan blue exclusion assays in which the percent of blue dye incorporating cells were determined using a light microscope and a hemacytometer as described (Yacoub et al. Mol Cancer Ther 7:314-329, 2008). Apoptotic cell death was measured by staining cell nuclei with the Hoechst dye bisbenzimide and apoptotic cells were identified by condensed, fragmented nuclear regions as described previously (Sankala et al. Cancer Res 67:10466-10474, 2007). A minimum of 300 cells was scored.

[2] = tested on: blasts obtained from patients with AML; conditions: U.S. Ser. No. 12/387,228; cited from earlier work
JNK = JNK pathway and p38 MAPK activation, LN229 cells; format: cell-based, human
Procedure: (§3) Cells were scraped in buffer containing 20 mM Tris-HCl, pH 7.5, 50 mM NaCl, 50 mM NaF, 30 mM Na4P2O7, 20 mM 2-glycerophosphate, 1 mM Na3VO4, 5 mM EDTA, 2 mM EGTA, 0.5% SDS and protease inhibitor cocktail (1:200 dilution) and probe-sonicated. Equal amounts of protein determined with bicinchoninic acid (Pierce, Rockford, Ill.), were resolved by SDS-PAGE and transferred to nitrocellulose membranes. Blots were blocked with 5% non-fat dry milk in Tris-buffered saline containing 0.1% […] (TBST) for 1 h at room temperature, and then incubated with primary antibodies (1:3,000 in 1% BSA) overnight, followed by the appropriate HRP-conjugated secondary antibodies (1:40,000 in 1% BSA). Immunocomplexes were visualized by enhanced chemiluminescence (Pierce).

U373 cells [3] = experiment: Cell proliferation (WST-1), U373 cells; format: cell-based, human
Procedure: as §1, §2

U373 cells [4] = experiment: PMA-stimulated F-actin reorganization and lamellipodia formation (phalloidin staining, confocal); format: cell-based, human
Procedure: Cells were grown on 3-aminopropyl-triethoxysilane-treated 15 mm glass cover slips in 24 well plates. Following treatments, cells were washed with PBS, fixed with 3% paraformaldehyde for 10 min at room temperature, and blocked in TBST buffer containing 1% BSA. After washing, cells were incubated in the same buffer containing Alexa-conjugated phalloidin for 30 min, followed by 15 min incubation in 10 μg/ml of Hoechst 33342. For TUNEL assays, fixed cells were permeabilized with 0.5% TX-100 for 30 min, washed and incubated in TdT buffer supplemented with 250 μM CoCl2, 20 units TdT (NEB, Ipswich, Mass.) and 1 nM fluorescein-12-dUTP (Roche) for 1 h at 37° C. Coverslips were washed with TBST, rinsed in water, air dried and mounted on glass slides with Cytoseal 60 polymer (Richard-Allan Scientific, Kalamazoo, Mich.). Images were collected on an LSM 510 laser confocal microscope (Zeiss, Thornwood, N.Y.) with a 100× oil immersion objective.

ERK1/2 = experiment: Western blotting of pERK1/2, GBM6 cells; format: cell-based, human
Procedure: as §3

GBM6 = experiment: In vitro invasion, GBM6 cells; format: cell-based, human
Procedure: (§4) Boyden chamber invasion assays were carried out essentially as described (Shida et al. Cancer Res 68:6569-6577, 2008).

p70S6K = experiment: Western blotting of p70S6K phosphorylation, LN229 cells; format: cell-based, human
Procedure: as §3

[5] = Metabolism of SK1-I in cells by LC-ESI-MS/MS; format: in vitro ADME
Description: Lipids were extracted and phosphorylated and unphosphorylated sphingoid bases, individual ceramide acyl chain species, as well as SK1-I and its metabolites were quantified by liquid chromatography, electrospray ionization-tandem mass spectrometry (LC-ESI-MS/MS) as described previously (Merrill et al. Methods 36:207-224, 2005).

U373 cells [6] = experiment: Boyden chamber chemotaxis, U373 cells; format: cell-based, human
Procedure: as §4

Akt [7] = experiment: Western blotting of Akt phosphorylation, U373 cells; format: cell-based, human
Procedure: as §3

GBM6 glioblastoma cells = experiment: Cell proliferation (WST-1), primary non-established GBM6 cells; format: cell-based, human
Procedure: as §1
as §2, with “A minimum of 300 cells was scored.” left out

LN229 cells [8] = experiment: In vitro invasion into Matrigel, LN229 cells; format: cell-based, human
Procedure: as §4

Akt [9] = experiment: Western blotting of Akt phosphorylation, GBM6 cells; format: cell-based, human; conditions: GBM6, shortly following treatment
Procedure: as §3

[10] = tested on: intracranial LN229-H2B-EGFP tumors; experiment: Intracranial LN229 xenograft tumors in nu/nu mice; format: in vivo
Procedure: Adult female NCI nu/nu mice were anesthetized and LN229-H2B-EGFP cells (2.5×10^4 in 1 μl PBS) were stereotactically implanted in the putamen region (1 mm anterior and 2.5 mm lateral to the Bregma at the depth of 3.5 mm at a rate of 0.1 μl/min). Mice were monitored for recovery until complete wakening. 20 days after implantation, mice were injected i.p. with SK1-I (20 mg/kg in PBS) every other day. Mice were observed daily following tumor implantation and were euthanized on reaching a moribund state.
Experiments were repeated at least three times with consistent results. For each experiment, data from triplicate samples were expressed as means±S.D. Statistics were performed by single factor ANOVA, and p<0.05 was considered significant. The Kaplan-Meier estimator was used to generate the survival curves and to estimate the median survival values. Differences between survival curves were compared using a log-rank test.

Compound: CCCCCc1ccc(/C=C/[C@H](O)[C@@H](CO)NC)cc1 [SK1-I, (2R,3S,4E)-N-methyl-5-(4′-pentylphenyl)-2-aminopent-4-ene-1,3-diol]
- cell growth (LN229 cells [1]; LN229, 10 μM, absence of serum): strongly inhibited growth
- cell numbers (LN229 cells [1]; LN229, 10 μM, presence of serum, within 2-4 days): severe reductions in cell numbers
- concentration at which a significant growth inhibitory effect was observed (LN229 cells [1]; LN229 cells): 3 µM
- apoptosis [2]: markedly induced apoptosis
- activation of JNK (JNK; LN229): delayed activation of JNK
- phosphorylation of c-Jun (Ser63/73) and ATF-2 (Thr71) (JNK; LN229, after addition of SK1-I): enhanced phosphorylation
- p38 MAPK (JNK; LN229, data not shown): without affecting
- cell growth (U373 cells [3]; U373, 10 μM, absence of serum): strongly inhibited growth
- cell numbers (U373 cells [3]; U373, 10 μM, presence of serum, within 2-4 days): severe reductions in cell numbers
- concentration at which a significant growth inhibitory effect was observed (U373 cells [3]; U373 cells): 3 µM
- PMA-stimulated F-actin reorganization at the leading edge and formation of lamellipodia (U373 cells [4]): dramatically reduced
- pERK1/2 levels (ERK1/2): without affecting
- serum- and EGF-induced invasion (GBM6): suppressed
- activation of p70S6K (Thr389) (p70S6K): reduced activation
- other metabolites ([5]; after 24 h): no other metabolites were detected
- phosphorylation of the compound ([5]; in contrast to FTY720): not readily phosphorylated
- chemotaxis toward serum or EGF (U373 cells [6]): reduced
- basal Akt phosphorylation at Thr308 and Ser473 (Akt [7]; U373): reduced
- time to significant inhibitory effect on Akt phosphorylation (Akt [7]; U373): ≤ 20 min
- duration of inhibitory effect on Akt phosphorylation (Akt [7]; U373, data not shown): at least 24 hours
- total Akt levels (Akt [7]; after treatment with SK1-I): no significant reductions
- cell growth (GBM6 glioblastoma cells; GBM6, 10 μM, presence of serum): markedly reduced growth
- lowest concentration with significant growth inhibition (GBM6 glioblastoma cells; GBM6, absence of serum): 1 µM
- LPA-, serum- and EGF-stimulated in vitro invasion of Matrigel (LN229 cells [8]): greatly attenuated
- basal and serum- and EGF-stimulated phosphorylation of Akt (Akt [9]): reduced
- symptoms of tumor burden ([10]; 20 mg/kg i.p. every other day from day 20, when vehicle mice were moribund (day 43-49)): None of the SK1-I treated mice showed any symptoms
- tumors on T2W MRI ([10]; day 48): no tumors were evident
- tumor on gadolinium enhanced MRI ([10]; day 48, site of injection): small tumor
- Kaplan-Meier survival ([10]; i.p. administration, vs vehicle control): significant survival benefit
- invading GFP-labeled LN229 cells in intracranial tumor sections ([10]; vs vehicle treated animals): significantly fewer invading cells
